Test results as given in patent US20230233569A1 (Revolution Medicines, Inc., priority 2020, published 2023).
Where two headings read alike, the source gives them in different places.

Legend:
Experiment in all cases: Ras-Raf disruption / FRET / MOA assay (BRAF RBD)
Assay type in all cases: biochemical
KRAS G12C = KRAS G12C (Homo sapiens, UniProt P01116+P62937, G12C); conditions: with Cyclophilin A
In short: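 TR-FRET read-out after 1.5 h with anti-His Eu-W1024 (10 nM) and anti-GST APC (50 nM), following 3 h at 25 °C of compound (top 30 μM, 3-fold, 10 points) with 25 μM Cyclophilin A, 12.5 nM GMPPNP-loaded K-Ras G12C and 50 nM BRAF RBD; IC50 reported.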

NRAS Q61R = NRAS Q61R (Homo sapiens, UniProt P01111+P62937, Q61R)
In short: (§1)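 Compound-induced Ras–Cyclophilin A ternary complex disrupting BRAF RBD binding, read as IC50 from reduced TR-FRET ratio relative to DMSO. Final: Ras-GMPPNP 12.5 nM, BRAF RBD 50 nM, Cyclophilin A 25 μM, top compound 30 μM (3-fold, 10 points); 3 h at 25 °C, then 1.5 h with detection antibodies.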

NRAS G12C = NRAS G12C (Homo sapiens, UniProt P01111+P62937, G12C)
In short: as §1

NRAS Q61K = NRAS Q61K (Homo sapiens, UniProt P01111+P62937, Q61K)
In short: as §1

KRAS WT = KRAS WT (Homo sapiens, UniProt P01116+P62937); conditions: with Cyclophilin A
In short: as §1

NRAS WT = NRAS WT (Homo sapiens, UniProt P01111+P62937)
In short: as §1

KRAS G12S = KRAS G12S (Homo sapiens, UniProt P01116+P62937, G12S); conditions: with Cyclophilin A
In short: as §1

KRAS G13D = KRAS G13D (Homo sapiens, UniProt P01116+P62937, G13D); conditions: with Cyclophilin A
In short: as §1

KRAS G12D = KRAS G12D (Homo sapiens, UniProt P01116+P62937, G12D); conditions: with Cyclophilin A
In short: as §1

KRAS G13C = KRAS G13C (Homo sapiens, UniProt P01116+P62937, G13C); conditions: with Cyclophilin A
In short: as §1

KRAS G12V = KRAS G12V (Homo sapiens, UniProt P01116+P62937, G12V); conditions: with Cyclophilin A
In short: as §1

KRAS Q61H = KRAS Q61H (Homo sapiens, UniProt P01116+P62937, Q61H)
In short: as §1

[1] = Ras-Raf disruption, read-out: KRAS G12C FRET data IC50
[2] = NRAS Q61R, read-out: NRAS Q61R FRET data IC50
[3] = NRAS G12C, read-out: NRAS G12C FRET data IC50
[4] = NRAS Q61K, read-out: NRAS Q61K FRET data IC50
[5] = Ras-Raf disruption, read-out: KRAS WT FRET data IC50
[6] = NRAS WT, read-out: NRAS WT FRET data IC50
[7] = Ras-Raf disruption, read-out: KRAS G12S FRET data IC50
[8] = Ras-Raf disruption, read-out: KRAS G13D FRET data IC50
[9] = Ras-Raf disruption, read-out: KRAS G12D FRET data IC50
[10] = Ras-Raf disruption, read-out: KRAS G13C FRET data IC50
[11] = Ras-Raf disruption, read-out: KRAS G12V FRET data IC50
[12] = KRAS Q61H, read-out: KRAS Q61H FRET data IC50
[13] = KRAS G12C FRET data IC50, Ras-Raf disruption
[14] = NRAS G12C FRET data IC50, NRAS G12C
[15] = KRAS WT FRET data IC50, Ras-Raf disruption
[16] = KRAS G12S FRET data IC50, Ras-Raf disruption
[17] = KRAS G13D FRET data IC50, Ras-Raf disruption
[18] = KRAS G12D FRET data IC50, Ras-Raf disruption
[19] = KRAS G13C FRET data IC50, Ras-Raf disruption
[20] = KRAS G12V FRET data IC50, Ras-Raf disruption

Sequence of NRAS Q61R (P01111 whole entry Q61R): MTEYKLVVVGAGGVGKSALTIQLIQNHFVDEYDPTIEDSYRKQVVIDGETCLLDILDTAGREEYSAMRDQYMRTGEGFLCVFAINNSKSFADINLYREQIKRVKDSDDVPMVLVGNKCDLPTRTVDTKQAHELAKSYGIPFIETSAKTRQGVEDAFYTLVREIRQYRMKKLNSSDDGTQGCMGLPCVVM
Sequence of NRAS Q61R (P62937 whole entry): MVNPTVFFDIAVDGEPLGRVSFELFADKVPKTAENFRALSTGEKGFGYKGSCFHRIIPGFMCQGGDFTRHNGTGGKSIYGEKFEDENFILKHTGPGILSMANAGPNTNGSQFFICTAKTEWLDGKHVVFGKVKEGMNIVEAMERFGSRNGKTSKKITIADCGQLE
Sequence of NRAS G12C (P01111 whole entry G12C): as the sequence (P01111 whole entry Q61R) above, with G12C, R61Q counted along it
Sequence of NRAS G12C (P62937 whole entry): as the sequence (P62937 whole entry) above
Sequence of KRAS G13C (P01116 1-169 isoform P01116-2 G13C limits assumed): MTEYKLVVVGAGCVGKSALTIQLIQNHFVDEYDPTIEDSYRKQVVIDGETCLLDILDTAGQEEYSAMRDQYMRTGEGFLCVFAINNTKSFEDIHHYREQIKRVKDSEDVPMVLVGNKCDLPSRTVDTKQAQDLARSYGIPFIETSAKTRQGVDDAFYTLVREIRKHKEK
Sequence of KRAS G13C (P62937 whole entry): as the sequence (P62937 whole entry) above
Sequence of KRAS WT (P01116 1-169 isoform P01116-2 limits assumed): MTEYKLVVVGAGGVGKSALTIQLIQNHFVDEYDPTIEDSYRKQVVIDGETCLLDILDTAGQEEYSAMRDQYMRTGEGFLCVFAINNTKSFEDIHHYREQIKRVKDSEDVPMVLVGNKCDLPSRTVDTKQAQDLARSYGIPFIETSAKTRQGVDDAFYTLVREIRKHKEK
Sequence of KRAS WT (P62937 whole entry): as the sequence (P62937 whole entry) above
Sequence of NRAS Q61K (P01111 whole entry Q61K): as the sequence (P01111 whole entry Q61R) above, with R61K counted along it
Sequence of NRAS Q61K (P62937 whole entry): as the sequence (P62937 whole entry) above
Sequence of KRAS Q61H (P01116 1-169 isoform P01116-2 Q61H limits assumed): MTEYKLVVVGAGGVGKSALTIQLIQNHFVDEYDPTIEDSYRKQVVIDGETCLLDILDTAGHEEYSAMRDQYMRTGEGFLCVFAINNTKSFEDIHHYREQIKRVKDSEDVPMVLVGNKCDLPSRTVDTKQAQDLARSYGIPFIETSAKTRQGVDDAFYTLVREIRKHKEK
Sequence of KRAS Q61H (P62937 whole entry): as the sequence (P62937 whole entry) above
Sequence of KRAS G12S (P01116 1-169 isoform P01116-2 G12S limits assumed): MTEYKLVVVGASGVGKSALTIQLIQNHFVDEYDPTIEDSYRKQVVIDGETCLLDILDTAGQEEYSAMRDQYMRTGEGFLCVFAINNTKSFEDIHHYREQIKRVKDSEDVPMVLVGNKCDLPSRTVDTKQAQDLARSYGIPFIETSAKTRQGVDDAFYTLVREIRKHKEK
Sequence of KRAS G12S (P62937 whole entry): as the sequence (P62937 whole entry) above
Sequence of KRAS G12C (P01116 1-169 isoform P01116-2 G12C limits assumed): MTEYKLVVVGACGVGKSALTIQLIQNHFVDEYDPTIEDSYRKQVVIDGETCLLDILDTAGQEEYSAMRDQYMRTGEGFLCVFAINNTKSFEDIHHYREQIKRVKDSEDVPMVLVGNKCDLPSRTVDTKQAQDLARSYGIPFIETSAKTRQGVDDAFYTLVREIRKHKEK
Sequence of KRAS G12C (P62937 whole entry): as the sequence (P62937 whole entry) above
Sequence of KRAS G13D (P01116 1-169 isoform P01116-2 G13D limits assumed): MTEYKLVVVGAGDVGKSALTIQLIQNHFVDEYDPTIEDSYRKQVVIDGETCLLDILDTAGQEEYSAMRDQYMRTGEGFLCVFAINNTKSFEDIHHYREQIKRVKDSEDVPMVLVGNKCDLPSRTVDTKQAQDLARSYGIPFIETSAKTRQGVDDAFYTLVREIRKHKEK
Sequence of KRAS G13D (P62937 whole entry): as the sequence (P62937 whole entry) above
Sequence of NRAS WT (P01111 whole entry): as the sequence (P01111 whole entry Q61R) above, with R61Q counted along it
Sequence of NRAS WT (P62937 whole entry): as the sequence (P62937 whole entry) above
Sequence of KRAS G12V (P01116 1-169 isoform P01116-2 G12V limits assumed): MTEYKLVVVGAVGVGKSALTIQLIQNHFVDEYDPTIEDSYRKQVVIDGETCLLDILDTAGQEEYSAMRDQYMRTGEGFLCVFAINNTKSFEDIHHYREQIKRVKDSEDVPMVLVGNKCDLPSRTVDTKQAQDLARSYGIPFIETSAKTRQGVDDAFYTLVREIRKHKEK
Sequence of KRAS G12V (P62937 whole entry): as the sequence (P62937 whole entry) above
Sequence of KRAS G12D (P01116 1-169 isoform P01116-2 G12D limits assumed): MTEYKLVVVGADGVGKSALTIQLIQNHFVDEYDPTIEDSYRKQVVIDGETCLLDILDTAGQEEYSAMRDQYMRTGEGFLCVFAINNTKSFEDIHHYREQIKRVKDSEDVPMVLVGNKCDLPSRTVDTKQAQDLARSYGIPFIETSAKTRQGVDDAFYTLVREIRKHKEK
Sequence of KRAS G12D (P62937 whole entry): as the sequence (P62937 whole entry) above

SMILES | IC50 (KRAS G12C; [1]) [nM] | IC50 (NRAS Q61R; [2]) [nM] | IC50 (NRAS G12C; [3]) [nM] | IC50 (NRAS Q61K; [4]) [nM] | IC50 (KRAS WT; [5]) [nM] | IC50 (NRAS WT; [6]) [nM] | IC50 (KRAS G12S; [7]) [nM] | IC50 (KRAS G13D; [8]) [nM] | IC50 (KRAS G12D; [9]) [nM] | IC50 (KRAS G13C; [10]) [nM] | IC50 (KRAS G12V; [11]) [nM] | IC50 (KRAS Q61H; [12]) [nM] | also measured
CCn1c(-c2cccnc2[C@H](C)OC)c2c3cc(ccc31)-c1csc(n1)C[C@H](NC(=O)[C@H](C(C)C)N(C)C(=O)N(C)C1CN(C(=O)[C@H]3CN3)C1)C(=O)N1CCC[C@H](N1)C(=O)OCC(C)(C)C2 [Example 220] | 10 to 100 | 100 to 1000 | 100 to 1000 | 10 to 100 | 100 to 1000 | 100 to 1000 | 100 to 1000 | 100 to 1000 | 1000 to 10000 | 100 to 1000 | 100 to 1000 | 10 to 100 | –
CCn1c(-c2cccnc2[C@H](C)OC)c2c3cc(ccc31)-c1csc(n1)C[C@H](NC(=O)[C@H](C(C)C)N(C)C(=O)N(C)[C@H]1CCCN(C(=O)[C@H]3CN3)C1)C(=O)N1CCC[C@H](N1)C(=O)OCC(C)(C)C2 (atropisomer, axis not shown) [Example 295] | 100 to 1000 | 1000 to 10000 | 100 to 1000 | 100 to 1000 | 100 to 1000 | 100 to 1000 | 1000 to 10000 | 1000 to 10000 | 1000 to 10000 | 1000 to 10000 | 1000 to 10000 | 100 to 1000 | –
CCn1c(-c2cccnc2[C@H](C)OC)c2c3cc(ccc31)-c1cc(O)cc(c1)C[C@H](NC(=O)[C@H](C1CCCC1)N(C)C(=O)CN(C)C(=O)[C@H]1[C@@H](C3CC3)N1CCCOC)C(=O)N1CCC[C@H](N1)C(=O)OCC(C)(C)C2 (stereo partly drawn) [Example 317] | – | – | – | – | – | – | – | – | – | – | – | – | IC50 (KRAS G12C; [13]): 10 to 100 nM; IC50 (NRAS Q61R): 100 to 1000 nM; IC50 (NRAS G12C; [14]): 10 to 100 nM; IC50 (NRAS Q61K): 100 to 1000 nM; IC50 (KRAS WT; [15]): 10 to 100 nM; IC50 (NRAS WT): 10 to 100 nM; IC50 (KRAS G12S; [16]): 10 to 100 nM; IC50 (KRAS G13D; [17]): 100 to 1000 nM; IC50 (KRAS G12D; [18]): 100 to 1000 nM; IC50 (KRAS G13C; [19]): 10 to 100 nM; IC50 (KRAS G12V; [20]): 10 to 100 nM; IC50 (KRAS Q61H): 10 to 100 nM
CCn1c(-c2cccnc2[C@H](C)OC)c2c3cc(ccc31)-c1cc(O)cc(c1)C[C@H](NC(=O)[C@H](C(C)C)N(C)C(=O)[C@@H]1CCN(C(=O)[C@H]3CN3)C1)C(=O)N1CCC[C@H](N1)C(=O)OCC(C)(C)C2 (atropisomer, axis not shown) [Example 186] | < 10 | 100 to 1000 | < 10 | 100 to 1000 | 10 to 100 | 10 to 100 | 10 to 100 | 10 to 100 | 10 to 100 | 10 to 100 | 10 to 100 | 10 to 100 | –
CCn1c(-c2cccnc2[C@H](C)OC)c2c3cc(ccc31)-c1cc(O)cc(c1)C[C@H](NC(=O)[C@H](C1CCCC1)N(C)C(=O)[C@H](C)N(C)C(=O)[C@@H]1N[C@@H]1C1CC1)C(=O)N1CCC[C@H](N1)C(=O)OCC(C)(C)C2 [Example 328] | – | – | – | – | – | – | – | – | – | – | – | – | IC50 (KRAS G12C; [13]): 10 to 100 nM; IC50 (NRAS Q61R): 100 to 1000 nM; IC50 (NRAS G12C; [14]): 10 to 100 nM; IC50 (NRAS Q61K): 100 to 1000 nM; IC50 (KRAS WT; [15]): 10 to 100 nM; IC50 (NRAS WT): 10 to 100 nM; IC50 (KRAS G12S; [16]): 10 to 100 nM; IC50 (KRAS G13D; [17]): 100 to 1000 nM; IC50 (KRAS G12D; [18]): 100 to 1000 nM; IC50 (KRAS G13C; [19]): 10 to 100 nM; IC50 (KRAS G12V; [20]): 10 to 100 nM; IC50 (KRAS Q61H): 10 to 100 nM
CCn1c(-c2cccnc2[C@H](C)OC)c2c3cc(ccc31)-c1csc(n1)C[C@H](NC(=O)[C@H](C(C)C)N(C)C(=O)N(C)C1CN(C(=O)[C@@H]3CN3)C1)C(=O)N1CCC[C@H](N1)C(=O)OCC(C)(C)C2 [Example 221] | 100 to 1000 | 100 to 1000 | 100 to 1000 | 100 to 1000 | 100 to 1000 | 100 to 1000 | 100 to 1000 | 100 to 1000 | 1000 to 10000 | 100 to 1000 | 100 to 1000 | 100 to 1000 | –
CCn1c(-c2cccnc2[C@H](C)OC)c2c3cc(ccc31)-c1cc(O)cc(c1)C[C@H](NC(=O)[C@H](C(C)C)N(C)C(=O)c1nc(NC(=O)[C@H]3CN3)cs1)C(=O)N1CCC[C@H](N1)C(=O)OCC(C)(C)C2 (atropisomer, axis not shown) [Example 212] | 100 to 1000 | 100 to 1000 | 100 to 1000 | 100 to 1000 | 100 to 1000 | 100 to 1000 | 100 to 1000 | 100 to 1000 | 1000 to 10000 | 10 to 100 | 100 to 1000 | 10 to 100 | –
CCn1c(-c2cccnc2[C@H](C)OC)c2c3cc(ccc31)-c1cc(O)cc(c1)C[C@H](NC(=O)[C@H](C(C)C)N(C)C(=O)[C@H]1C[C@H]3CC[C@@H](C1)N3C(=O)[C@H]1CN1)C(=O)N1CCC[C@H](N1)C(=O)OCC(C)(C)C2 (atropisomer, axis not shown) [Example 245] | 10 to 100 | 100 to 1000 | 10 to 100 | 100 to 1000 | 10 to 100 | 10 to 100 | 100 to 1000 | 100 to 1000 | 100 to 1000 | 10 to 100 | 100 to 1000 | 10 to 100 | –
CCn1c(-c2cccnc2[C@H](C)OC)c2c3cc(ccc31)-c1cc(O)cc(c1)C[C@H](NC(=O)[C@H](C(C)C)N(C)C(=O)[C@H]1CCCN(C(=O)[C@@H]3CN3)C1)C(=O)N1CCC[C@H](N1)C(=O)OCC(C)(C)C2 [Example 236] | 10 to 100 | 1000 to 10000 | 10 to 100 | 1000 to 10000 | 100 to 1000 | 100 to 1000 | 100 to 1000 | 100 to 1000 | 100 to 1000 | 100 to 1000 | 100 to 1000 | 100 to 1000 | –
CCn1c(-c2cccnc2[C@H](C)OC)c2c3cc(ccc31)-c1cc(O)cc(c1)C[C@H](NC(=O)[C@@H](COC1CCN(C(=O)[C@H]3CN3)CC1)C(C)C)C(=O)N1CCC[C@H](N1)C(=O)OCC(C)(C)C2 (atropisomer, axis not shown) [Example 211] | 10 to 100 | 1000 to 10000 | 10 to 100 | 1000 to 10000 | 100 to 1000 | 100 to 1000 | 1000 to 10000 | 1000 to 10000 | 1000 to 10000 | 100 to 1000 | 1000 to 10000 | 100 to 1000 | –
CCn1c(-c2cccnc2[C@H](C)OC)c2c3cc(ccc31)-c1cc(O)cc(c1)C[C@H](NC(=O)[C@H](C(C)C)N(C)C(=O)N1CC[C@@H](N(C)C(=O)[C@@H]3CN3)C1)C(=O)N1CCC[C@H](N1)C(=O)OCC(C)(C)C2 (atropisomer, axis not shown) [Example 253] | 10 to 100 | 100 to 1000 | 10 to 100 | 100 to 1000 | 10 to 100 | 10 to 100 | 100 to 1000 | 100 to 1000 | 100 to 1000 | 10 to 100 | 100 to 1000 | 10 to 100 | –
CCn1c(-c2cccnc2[C@H](C)OC)c2c3cc(ccc31)-c1csc(n1)C[C@H](NC(=O)[C@H](C(C)C)N(C)C(=O)N1CCCN(C(=O)[C@@H]3CN3)CC1)C(=O)N1CCC[C@H](N1)C(=O)OCC(C)(C)C2 (atropisomer, axis not shown) [Example 223] | 10 to 100 | 10 to 100 | 10 to 100 | 10 to 100 | 10 to 100 | 10 to 100 | 100 to 1000 | 100 to 1000 | 100 to 1000 | 100 to 1000 | 100 to 1000 | 10 to 100 | –
